Measurements taken from patent US20080176862A1, “New Compounds 617” (ASTRAZENECA AB, priority 2006, published 2008).
Where a name gives a salt, the structure may show the parent alone.

Target: T1, human β-Secretase (soluble part, AA1-AA460; sBACE-Fc) (Homo sapiens, UniProt P56817)
T1 construct: The soluble part of the human β-Secretase (AA1-AA460) was cloned into the ASP2-Fc10-1-IRES-GFP-neoK mammalian expression vector; made in house
Test: TR-FRET assay
Assay type: biochemical
Conditions: substrate (Europium)CEVNLDAEFK(Qsy7) 100 nM, pH 4.5, 15 min at RT; read-out: IC50 (nM) in TR-FRET assay

T1 sequence (P56817 22-460): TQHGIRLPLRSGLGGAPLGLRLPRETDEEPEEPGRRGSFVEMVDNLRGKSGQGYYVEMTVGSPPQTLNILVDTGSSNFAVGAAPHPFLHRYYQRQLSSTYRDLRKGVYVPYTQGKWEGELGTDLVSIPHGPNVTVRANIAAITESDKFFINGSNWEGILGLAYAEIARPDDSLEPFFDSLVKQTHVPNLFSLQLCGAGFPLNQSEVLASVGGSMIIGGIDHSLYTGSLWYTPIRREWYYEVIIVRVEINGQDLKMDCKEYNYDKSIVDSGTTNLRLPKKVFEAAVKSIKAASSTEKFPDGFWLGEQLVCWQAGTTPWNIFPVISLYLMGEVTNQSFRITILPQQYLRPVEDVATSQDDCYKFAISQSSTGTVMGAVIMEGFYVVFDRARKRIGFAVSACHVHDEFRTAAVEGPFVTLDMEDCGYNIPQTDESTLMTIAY

| SMILES | IC50 [nM] |
| --- | --- |
| CN1C(=O)C(c2ccc(OS(=O)(=O)C(F)(F)F)cc2)(c2ccc(F)c(-c3cncc(F)c3)c2)N=C1N (centres unmarked) [Example 145, 4-{2-amino-4-[4-fluoro-3-(5-fluoropyridin-3-yl)phenyl]-1-methyl-5-oxo-4,5-dihydro-1H-imidazol-4-yl}phenyl trifluoromethanesulfonate 0.5 acetate] | 150 |
| COc1cncc(-c2cc(C3(c4ccc(OS(=O)(=O)C(F)(F)F)cc4)N=C(N)N(C)C3=O)ccc2F)c1 (centres unmarked) [Example 148, 4-{2-Amino-4-[4-fluoro-3-(5-methoxypyridin-3-yl)phenyl]-1-methyl-5-oxo-4,5-dihydro-1H-imidazol-4-yl}phenyl trifluoromethanesulfonate 0.5 acetate] | 40 |
| CN1C(=O)C(c2ccc(OS(=O)(=O)C(F)(F)F)cc2)(c2ccc(F)c(-c3cc(Cl)ccn3)c2)N=C1N (centres unmarked) [Example 149, 4-{2-Amino-4-[3-(4-chloropyridin-2-yl)-4-fluorophenyl]-1-methyl-5-oxo-4,5-dihydro-1H-imidazol-4-yl}phenyl trifluoromethanesulfonate 0.75 acetate] | 163 |
| CCN1C(=O)C(c2ccc(OS(C)(=O)=O)cc2)(c2ccc(F)c(-c3cc(Cl)cc(Cl)c3)c2)N=C1N (centres unmarked) [Example 161, 4-[2-Amino-4-(3′,5′-dichloro-6-fluorobiphenyl-3-yl)-1-ethyl-5-oxo-4,5-dihydro-1H-imidazol-4-yl]phenyl methanesulfonate] | 1680 |
| CCN1C(=O)C(c2ccc(OS(C)(=O)=O)cc2)(c2ccc(F)c(-c3cncnc3)c2)N=C1N (centres unmarked) [Example 162, 4-[2-Amino-4-(4-fluoro-3-pyrimidin-5-ylphenyl)-1-ethyl-5-oxo-4,5-dihydro-1H-imidazol-4-yl]phenyl methanesulfonate] | 682 |
| CCN1C(=O)C(c2ccc(OS(C)(=O)=O)cc2)(c2ccc(F)c(-c3cccc(OC)c3)c2)N=C1N (centres unmarked) [Example 163, 4-[2-Amino-4-(6-fluoro-3′-methoxybiphenyl-3-yl)-1-ethyl-5-oxo-4,5-dihydro-1H-imidazol-4-yl]phenyl methanesulfonate 0.25acetate] | 395 |
| CCN1C(=O)C(c2ccc(OS(C)(=O)=O)cc2)(c2ccc(F)c(-c3cccc(Cl)c3)c2)N=C1N (centres unmarked) [Example 164, 4-[2-Amino-4-(3′-chloro-6-fluorobiphenyl-3-yl)-1-ethyl-5-oxo-4,5-dihydro-1H-imidazol-4-yl]phenyl methanesulfonate] | 912 |
| CCCN1C(=O)C(c2ccc(OS(C)(=O)=O)cc2)(c2ccc(F)c(-c3cncnc3)c2)N=C1N (centres unmarked) [Example 165, 4-[2-Amino-4-(4-fluoro-3-pyrimidin-5-ylphenyl)-1-propyl-5-oxo-4,5-dihydro-1H-imidazol-4-yl]phenyl methanesulfonate 0.5 acetate] | 589 |
| COc1ccc(C#N)c(-c2cc(C3(c4ccc(OS(C)(=O)=O)cc4)N=C(N)N(C)C3=O)ccc2F)c1 (centres unmarked) [Example 167, 4-[2-Amino-4-(2′-cyano-6-fluoro-5′-methoxybiphenyl-3-yl)-1-methyl-5-oxo-4,5-dihydro-1H-imidazol-4-yl]phenyl methanesulfonate] | 46 |
| COc1ccc(OC(F)(F)F)c(-c2cc(C3(c4ccc(OS(C)(=O)=O)cc4)N=C(N)N(C)C3=O)ccc2F)c1 (centres unmarked) [Example 168, 4-{2-Amino-4-[6-fluoro-5′-methoxy-2′-(trifluoromethoxy)biphenyl-3-yl]-1-methyl-5-oxo-4,5-dihydro-1H-imidazol-4-yl}phenyl methanesulfonate] | 349 |
| CN1C(=O)C(c2ccc(OS(C)(=O)=O)cc2)(c2ccc(F)c(-c3cnccc3Cl)c2)N=C1N (centres unmarked) [Example 169, 4-{2-amino-4-[3-(4-chloropyridin-3-yl)-4-fluorophenyl]-1-methyl-5-oxo-4,5-dihydro-1H-imidazol-4-yl}phenyl methanesulfonate hydrochloride] | 171 |
| CN1C(=O)C(c2cccc(OS(C)(=O)=O)c2)(c2cccc(-c3cnccc3Cl)c2)N=C1N (centres unmarked) [Example 170, 3-{2-Amino-4-[3-(4-chloropyridin-3-yl)phenyl]-1-methyl-5-oxo-4,5-dihydro-1H-imidazol-4-yl}phenyl methanesulfonate hydrochloride] | 651 |
| COc1ccc(C#N)c(-c2cccc(C3(c4cccc(OS(C)(=O)=O)c4)N=C(N)N(C)C3=O)c2)c1 (centres unmarked) [Example 176, 3-[2-Amino-4-(2′-cyano-5′-methoxybiphenyl-3-yl)-1-methyl-5-oxo-4,5-dihydro-1H-imidazol-4-yl]phenyl methanesulfonate hydrochloride] | 148 |

Second part, the compound after the results:

| IC50 [nM] | SMILES |
| --- | --- |
| 100 | COc1ccc(C#N)c(-c2cc(C3(c4cccc(OS(C)(=O)=O)c4)N=C(N)N(C)C3=O)ccc2F)c1 (centres unmarked) [Example 177, 3-[2-Amino-4-(2′-cyano-6-fluoro-5′-methoxybiphenyl-3-yl)-1-methyl-5-oxo-4,5-dihydro-1H-imidazol-4-yl]phenyl methanesulfonate hydrochloride] |
| 156 | CN1C(=O)C(c2ccc(OS(=O)(=O)c3ccccc3)cc2)(c2ccc(F)c(Br)c2)N=C1N (centres unmarked) [Example 184, 4-[2-Amino-4-(3-bromo-4-fluorophenyl)-1-methyl-5-oxo-4,5-dihydro-1H-imidazol-4-yl]phenyl benzenesulfonate] |
| 19 | CN1C(=O)C(c2ccc(OS(=O)(=O)c3ccccc3)cc2)(c2ccc(F)c(-c3cncnc3)c2)N=C1N (centres unmarked) [Example 185, 4-[2-Amino-4-(4-fluoro-3-pyrimidin-5-ylphenyl)-1-methyl-5-oxo-4,5-dihydro-1H-imidazol-4-yl]phenyl benzenesulfonate hydrochloride] |
| 459 | CN1C(=O)C(c2ccc(OS(=O)(=O)C(F)(F)F)cc2)(c2ccc(F)c(-c3cncs3)c2)N=C1N (centres unmarked) [Example 187, 4-{2-Amino-4-[4-fluoro-3-(1,3-thiazol-5-yl)phenyl]-1-methyl-5-oxo-4,5-dihydro-1H-imidazol-4-yl}phenyl trifluoromethanesulfonate hydrochloride] |
| 379 | CN1C(=O)C(c2ccc(OS(C)(=O)=O)cc2)(c2ccc(F)c(-c3cncs3)c2)N=C1N (centres unmarked) [Example 188, 4-{2-Amino-4-[4-fluoro-3-(1,3-thiazol-5-yl)phenyl]-1-methyl-5-oxo-4,5-dihydro-1H-imidazol-4-yl}phenyl methanesulfonate hydrochloride] |
| 1260 | COc1cc(OS(C)(=O)=O)cc(-c2cc(C3(C4CCOCC4)N=C(N)N(C)C3=O)ccc2F)c1 (centres unmarked) [Example 192, 5′-[2-Amino-1-methyl-5-oxo-4-(tetrahydro-2H-pyran-4-yl)-4,5-dihydro-1H-imidazol-4-yl]-2′-fluoro-5-methoxybiphenyl-3-yl methanesulfonate hydrochloride] |
| 1180 | CN1C(=O)C(c2ccc(F)c(-c3cc(Cl)cc(OS(C)(=O)=O)c3)c2)(C2CCOCC2)N=C1N (centres unmarked) [Example 193, 5′-[2-Amino-1-methyl-5-oxo-4-(tetrahydro-2H-pyran-4-yl)-4,5-dihydro-1H-imidazol-4-yl]-5-chloro-2′-fluorobiphenyl-3-yl methanesulfonate hydrochloride] |
| 284 | CN1C(=O)C(c2cccc(OS(C)(=O)=O)c2)(c2ccc(F)c(C3=CCCC3)c2)N=C1N (centres unmarked) [Example 194, 3-[2-Amino-4-(3-cyclopent-1-en-1-yl-4-fluorophenyl)-1-methyl-5-oxo-4,5-dihydro-1H-imidazol-4-yl]phenyl methanesulfonate hydrochloride] |
| 646 | CN1C(=O)C(c2cccc(OS(C)(=O)=O)c2)(c2cccc(C3=CCCC3)c2)N=C1N (centres unmarked) [Example 195, 3-[2-Amino-4-(3-cyclopent-1-en-1-yl-phenyl)-1-methyl-5-oxo-4,5-dihydro-1H-imidazol-4-yl]phenyl methanesulfonate hydrochloride] |
| 721 | CN1C(=O)C(c2cccc(OS(=O)(=O)C(F)(F)F)c2)(c2cccc(C3=CCCC3)c2)N=C1N (centres unmarked) [Example 197, 3-[2-Amino-4-(3-cyclopent-1-en-1-ylphenyl)-1-methyl-5-oxo-4,5-dihydro-1H-imidazol-4-yl]phenyl trifluoromethanesulfonate hydrochloride] |
| 99 | CCc1cc(C2(c3ccc(F)c(-c4cc(OC)cc(OS(C)(=O)=O)c4)c3)N=C(N)N(C)C2=O)cc(CC)n1 (centres unmarked) [Example 209, 5′-[2-Amino-4-(2,6-diethylpyridin-4-yl)-1-methyl-5-oxo-4,5-dihydro-1H-imidazol-4-yl]-2′-fluoro-5-methoxybiphenyl-3-yl methanesulfonate hydrochloride] |
| 137 | CCc1cc(C2(c3ccc(F)c(-c4cc(Cl)cc(OS(C)(=O)=O)c4)c3)N=C(N)N(C)C2=O)cc(CC)n1 (centres unmarked) [Example 210, 5′-[2-Amino-4-(2,6-diethylpyridin-4-yl)-1-methyl-5-oxo-4,5-dihydro-1H-imidazol-4-yl]-5-chloro-2′-fluorobiphenyl-3-yl methanesulfonate hydrochloride] |
| 104 | COc1cc(OS(C)(=O)=O)cc(-c2cc(C3(c4ccnc(C)c4)N=C(N)N(C)C3=O)ccc2F)c1 (centres unmarked) [Example 211, 5′-[2-Amino-1-methyl-4-(2-methylpyridin-4-yl)-5-oxo-4,5-dihydro-1H-imidazol-4-yl]-2′-fluoro-5-methoxybiphenyl-3-yl methanesulfonate hydrocloride] |
| 633 | CN1C(=O)C(c2cccc(OS(=O)(=O)c3c(F)cccc3F)c2)(c2ccc(F)c(Br)c2)N=C1N (centres unmarked) [Example 225, 3-[2-Amino-4-(3-bromo-4-fluorophenyl)-1-methyl-5-oxo-4,5-dihydro-1H-imidazol-4-yl]phenyl 2,6-difluorobenzenesulfonate] |
| 859 | CN1C(=O)C(c2cccc(OS(=O)(=O)c3ccccn3)c2)(c2ccc(F)c(Br)c2)N=C1N (centres unmarked) [Example 226, 3-[2-Amino-4-(3-bromo-4-fluorophenyl)-1-methyl-5-oxo-4,5-dihydro-1H-imidazol-4-yl]phenyl pyridine-2-sulfonate] |
| 1460 | CN1C(=O)C(c2cccc(OS(=O)(=O)c3ccc(-n4cccn4)cc3)c2)(c2ccc(F)c(Br)c2)N=C1N (centres unmarked) [Example 227, 3-[2-Amino-4-(3-bromo-4-fluorophenyl)-1-methyl-5-oxo-4,5-dihydro-1H-imidazol-4-yl]phenyl 4-(1H-pyrazol-1-yl)benzenesulfonate] |
